According to paper PMC4519239 (Bioorganic & medicinal chemistry, 2013):
Like-named read-outs stand apart in the source and are kept apart here.

Assays:
[1] = molecular target: α3β4 nAChR (Homo sapiens, UniProt P30926+P32297); test: Two-electrode voltage clamp, nAChRs expressed in Xenopus oocytes; assay type: cell-based; conditions: 1 or 10 µM, relative to ACh control; co-applied at 1 µM with ACh
[2] = molecular target: α7 nAChR (Homo sapiens, UniProt P36544); test: as above; assay type: cell-based; conditions: 1 or 10 µM, relative to ACh control; co-applied at 1 µM with ACh
[3] = molecular target: muscle nAChR α1β1εδ (Mus musculus, UniProt P02716+P04756+P20782); test: as above; assay type: cell-based; conditions: 1 or 10 µM, relative to ACh control; co-applied at 1 µM with ACh
[4] = molecular target: (α1)2β1γδ nAChR (Tetronarce californica, UniProt P02710+P02714+P02718); test: Competition binding assay using; design: species or system Torpedo californica
[5] = molecular target: α4β2* nAChR (Rattus norvegicus, UniProt P09483+P12390); test: Competition binding assay using
[6] = molecular target: α4β2*; conditions: read-out: α4β2* Ki, cited from earlier work
[7] = molecular target: α3β4*; conditions: read-out: α3β4* Ki, cited from earlier work
[8] = molecular target: α7*; conditions: read-out: α7* Ki, cited from earlier work
[9] = molecular target: (α1)2β1γδ; conditions: read-out: (α1)2β1γδ Ki, cited from earlier work

O=C(CC1CCCC1)N1C[C@@H]2CNC[C@@H](C2)C1.O=C(O)/C=C/C(=O)O [Compound 55, 1-((1R,5S)-3,7-diazabicyclo[3.3.1]nonan-3-yl)-2-cyclopentylethanone]
functional profile at α3β4* [1]: essentially no effect | functional profile at α7 [2]: apparent antagonistic activity | functional profile at muscle type [3]: apparent antagonistic activity

O=[N+]([O-])c1ccc(S(=O)(=O)N2C[C@@H]3CNC[C@@H](C3)C2)cc1 [Compound 40, (1R,5S)-3-(4-nitrophenylsulfonyl)-3,7-diazabicyclo[3.3.1]nonane]
Ki [4]: > 10000 nM

O=C(N1CCCC1)N1C[C@@H]2CNC[C@@H](C2)C1.O=C(O)/C=C/C(=O)O [Compound 67, (1R,5S)-3,7-diazabicyclo[3.3.1]nonan-3-yl(pyrrodin-1-yl)methanone]
affinity for the α4β2* subtype in words [5]: not active | Ki [4]: > 10000 nM

C1NCC2CNCC1C2 [bispidine, 3,7-diazabicyclo[3.3.1]nonane]
functional profile at α7 [2]: weak activation

O=C1CCCC2[C@H]3CNC[C@H](C3)CN12 (some centres unmarked) [Compound 6, tetrahydrocytisine]
Ki ([6]; ref [44]): 17 nM | Ki ([7]; ref [44]): 385 ± 6 nM | Ki ([8]; ref [44]): 2000 nM

CN1C[C@@H]2C[C@H](C1)C1CCCC(=O)N1C2 (some centres unmarked) [Compound 7]
Ki ([6]; ref [44]): 34 nM | Ki ([7]; ref [44]): 2450 nM | Ki ([8]; ref [44]): 10000 nM | Ki ([9]; ref [44]): > 50000 nM

CN(C)C(=O)N1C[C@@H]2CNC[C@@H](C2)C1.O=C(O)/C=C/C(=O)O [Compound 41, (1R,5S)-N,N-dimethyl-3,7-diazabicyclo[3.3.1]nonane-3-carboxamide]
fold lower affinity for the α4β2* nAChR ([5]; compared to carboxamide analog 17): 10 fold

O=c1c(-c2cccnc2)ccc2n1C[C@@H]1CNC[C@H]2C1 [4 (3PC), 3-(pyridine-3-yl)-cytisine]
Ki ([9]; ref [41],[44],[45]): > 5000 nM

Cl.O=S(=O)(c1ccc(Br)cc1)N1C[C@@H]2CNC[C@@H](C2)C1 [Compound 39, (1R,5S)-3-(4-bromophenylsulfonyl)-3,7-diazabicyclo[3.3.1]nonane]
affinity for the α4β2* subtype in words [5]: nonactive

O=C(O)/C=C/C(=O)O.O=C(c1cccc([N+](=O)[O-])c1)N1C[C@@H]2CNC[C@@H](C2)C1 [Compound 23, (1R,5S)-3,7-diazabicyclo[3.3.1]nonan-3-yl(3-nitrophenyl)methanone]
affinity for the α4β2* subtype in words [5]: inactive

c1cnc2cc3c(cc2n1)[C@@H]1CNC[C@H]3C1 [5 (Var), varenicline]
Ki ([6]; ref [42]): 0.06 nM | Ki ([7]; ref [42]): 240 nM | Ki ([8]; ref [42]): 322 nM | Ki ([9]; ref [42]): 3540 nM

CCN(CC)C(=O)N1C[C@@H]2CNC[C@@H](C2)C1.O=C(O)/C=C/C(=O)O [Compound 42, (1R,5S)-N,N-diethyl-3,7-diazabicyclo[3.3.1]nonane-3-carboxamide]
affinity for the α4β2* subtype in words [5]: lost its affinity

O=C(C1CCCC1)N1C[C@@H]2CNC[C@@H](C2)C1.O=C(O)/C=C/C(=O)O [Compound 43, (1R,5S)-3,7-diazabicyclo[3.3.1]nonan-3-yl(cyclopentyl)methanone]
functional profile at α3β4* [1]: Possible agonistic effects | functional profile at α7 [2]: agonism

O=C(O)/C=C/C(=O)O.O=C(c1cccc(Cl)c1)N1C[C@@H]2CNC[C@@H](C2)C1 [Compound 22, (1R,5S)-3,7-diazabicyclo[3.3.1]nonan-3-yl(3-chlorophenyl)methanone]
affinity for the α4β2* subtype in words [5]: inactive

CS(=O)(=O)N1C[C@@H]2CNC[C@@H](C2)C1 [Compound 34, (1R,5S)-3-(methylsulfonyl)-3,7-diazabicyclo[3.3.1]nonane]
Ki [4]: > 10000 nM

CCC(=O)N1C[C@@H]2CNC[C@@H](C2)C1.O=C(O)/C=C/C(=O)O [Compound 15, (1R,5S)-1-(3,7-diazabicyclo[3.3.1]nonan-3-yl)propan-1-one]
functional profile at α3β4* [1]: Possible agonistic effects

CCCC(=O)N1C[C@@H]2CNC[C@@H](C2)C1.O=C(O)/C=C/C(=O)O [Compound 16, (1R,5S)-1-(3,7-diazabicyclo[3.3.1]nonan-3-yl)butan-1-one]
fold higher affinity for the α4β2* receptor ([5]; α4β2* versus α3β4*): about 74 fold | functional profile at α3β4* [1]: Possible agonistic effects | functional profile at α7 [2]: agonism

O=c1cccc2n1C[C@@H]1CNC[C@H]2C1 [3 (Cyt), cytisine]
Ki ([6]; ref [41],[44],[45]): 0.122 nM

CC(=O)N1C[C@@H]2CNC[C@@H](C2)C1.O=C(O)/C=C/C(=O)O [Compound 8, (1R, 5S)-1-(3,7-diazabicyclo[3.3.1]nonan-3-yl)ethanone]
functional profile at α7 [2]: agonism

O=C(N1CCC(Cc2ccccc2)CC1)N1C[C@@H]2CNC[C@@H](C2)C1 [Compound 69, (1R,5S)-3,7-diazabicyclo[3.3.1]nonan-3-yl(4-benzylpiperidin-1-yl)methanone]
Ki [4]: > 5000 nM

CC(=O)N1C[C@@H]2C[C@@H](CN(C)C2)C1 [Compound 70, 1-((1R,5S)-7-methyl-3,7-diazabicyclo[3.3.1]nonan-3-yl)ethanone]
fold lower affinity for the α4β2* subtype ([5]; compared to acetylbispidine 8): 35 fold
